Experimental data published in PubChem BioAssay (NCI).
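Cultured in 96-well plates, cells were exposed to test compound for 48 hours across five concentrations. Here, GI50 denotes the concentration required for 50% inhibition of growth. TGI is the concentration that stops growth completely.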

Legend:
Assay in all cases: NCI anticancer screen, dose series, 48 h
HS 578T breast = tested on: HS 578T breast
HT29 colon = tested on: HT29 colon
SR leukemia = tested on: SR leukemia
OVCAR-5 ovarian = tested on: OVCAR-5 ovarian
MOLT-4 leukemia = tested on: MOLT-4 leukemia
NCI/ADR-RES ovarian = tested on: NCI/ADR-RES ovarian
TK-10 renal = tested on: TK-10 renal
SK-OV-3 ovarian = tested on: SK-OV-3 ovarian
HCT-15 colon = tested on: HCT-15 colon
NCI-H460 lung = tested on: NCI-H460 lung
OVCAR-4 ovarian = tested on: OVCAR-4 ovarian
MCF7 breast = tested on: MCF7 breast
HCT-116 colon = tested on: HCT-116 colon
M14 melanoma = tested on: M14 melanoma
SW-620 colon = tested on: SW-620 colon
ACHN renal = tested on: ACHN renal
SF-295 CNS = tested on: SF-295 CNS
COLO 205 colon = tested on: COLO 205 colon
DU-145 prostate = tested on: DU-145 prostate
HL-60(TB) leukemia = tested on: HL-60(TB) leukemia
SF-539 CNS = tested on: SF-539 CNS
NCI-H522 lung = tested on: NCI-H522 lung
SK-MEL-28 melanoma = tested on: SK-MEL-28 melanoma
HOP-62 NSCLC = tested on: HOP-62 NSCLC
PC-3 prostate = tested on: PC-3 prostate
LOX IMVI melanoma = tested on: LOX IMVI melanoma
KM12 colon = tested on: KM12 colon
CAKI-1 renal = tested on: CAKI-1 renal
SNB-19 CNS = tested on: SNB-19 CNS
RXF 393 renal = tested on: RXF 393 renal
UACC-257 melanoma = tested on: UACC-257 melanoma
SF-268 CNS = tested on: SF-268 CNS
SK-MEL-5 melanoma = tested on: SK-MEL-5 melanoma
MDA-MB-435 = tested on: MDA-MB-435
UO-31 renal = tested on: UO-31 renal
NCI-H226 lung = tested on: NCI-H226 lung
UACC-62 melanoma = tested on: UACC-62 melanoma
EKVX NSCLC = tested on: EKVX NSCLC
IGROV1 ovarian = tested on: IGROV1 ovarian
SK-MEL-2 melanoma = tested on: SK-MEL-2 melanoma
K-562 leukemia = tested on: K-562 leukemia
BT-549 breast = tested on: BT-549 breast
SN12C renal = tested on: SN12C renal
786-0 renal = tested on: 786-0 renal
T-47D breast = tested on: T-47D breast
HOP-92 NSCLC = tested on: HOP-92 NSCLC
RPMI-8226 leukemia = tested on: RPMI-8226 leukemia
NCI-H23 lung = tested on: NCI-H23 lung
U251 CNS = tested on: U251 CNS
HCC-2998 colon = tested on: HCC-2998 colon
MDA-MB-231 breast = tested on: MDA-MB-231 breast
OVCAR-8 ovarian = tested on: OVCAR-8 ovarian
SNB-75 CNS = tested on: SNB-75 CNS
A549 NSCLC = tested on: A549 NSCLC
OVCAR-3 ovarian = tested on: OVCAR-3 ovarian

Compound: COC(=O)C1=C(OC(=O)c2ccccc2)C(C(=O)OC)[C@]2(O)[C@@H](C(=O)OC)C1CC(c1ccccc1OC)[C@@H]2C(=O)OC (stereo not given in full)
- GI50 (HS 578T breast): 5.98 µM
- TGI (HS 578T breast): 83.4 µM
- GI50 (HT29 colon): 22.2 µM
- TGI (HT29 colon): > 100 µM
- GI50 (SR leukemia): 1540 nM
- TGI (SR leukemia): 5.16 µM
- GI50 (OVCAR-5 ovarian): 41.5 µM
- TGI (OVCAR-5 ovarian): > 100 µM
- GI50 (MOLT-4 leukemia): 5.52 µM
- TGI (MOLT-4 leukemia): 37.8 µM
- GI50 (NCI/ADR-RES ovarian): 21 µM
- TGI (NCI/ADR-RES ovarian): 55.5 µM
- GI50 (TK-10 renal): 26.5 µM
- TGI (TK-10 renal): > 100 µM
- GI50 (SK-OV-3 ovarian): 5.62 µM
- TGI (SK-OV-3 ovarian): > 100 µM
- GI50 (HCT-15 colon): 30.1 µM
- TGI (HCT-15 colon): > 100 µM
- GI50 (NCI-H460 lung): 50.9 µM
- TGI (NCI-H460 lung): > 100 µM
- GI50 (OVCAR-4 ovarian): 4.75 µM
- TGI (OVCAR-4 ovarian): > 100 µM
- GI50 (MCF7 breast): 77.5 µM
- TGI (MCF7 breast): > 100 µM
- GI50 (HCT-116 colon): 13.9 µM
- TGI (HCT-116 colon): 52.8 µM
- GI50 (M14 melanoma): 18.6 µM
- TGI (M14 melanoma): 50.8 µM
- GI50 (SW-620 colon): 15.3 µM
- TGI (SW-620 colon): > 100 µM
- GI50 (ACHN renal): 41.9 µM
- TGI (ACHN renal): > 100 µM
- GI50 (SF-295 CNS): 5.41 µM
- TGI (SF-295 CNS): > 100 µM
- GI50 (COLO 205 colon): 15.5 µM
- TGI (COLO 205 colon): > 100 µM
- GI50 (DU-145 prostate): 5.51 µM
- TGI (DU-145 prostate): > 100 µM
- GI50 (HL-60(TB) leukemia): 14.7 µM
- TGI (HL-60(TB) leukemia): 67.1 µM
- GI50 (SF-539 CNS): 3.45 µM
- TGI (SF-539 CNS): 10.8 µM
- GI50 (NCI-H522 lung): 8.93 µM
- TGI (NCI-H522 lung): > 100 µM
- GI50 (SK-MEL-28 melanoma): 23.2 µM
- TGI (SK-MEL-28 melanoma): > 100 µM
- GI50 (HOP-62 NSCLC): 38.3 µM
- TGI (HOP-62 NSCLC): > 100 µM
- GI50 (PC-3 prostate): 9.08 µM
- TGI (PC-3 prostate): 69.2 µM
- GI50 (LOX IMVI melanoma): 39.2 µM
- TGI (LOX IMVI melanoma): > 100 µM
- GI50 (KM12 colon): 7.9 µM
- TGI (KM12 colon): > 100 µM
- GI50 (CAKI-1 renal): 3.99 µM
- TGI (CAKI-1 renal): > 100 µM
- GI50 (SNB-19 CNS): 25.1 µM
- TGI (SNB-19 CNS): > 100 µM
- GI50 (RXF 393 renal): 2530 nM
- TGI (RXF 393 renal): 8.65 µM
- GI50 (UACC-257 melanoma): 5.37 µM
- TGI (UACC-257 melanoma): 34.8 µM
- GI50 (SF-268 CNS): > 100 µM
- TGI (SF-268 CNS): > 100 µM
- GI50 (SK-MEL-5 melanoma): 4.09 µM
- TGI (SK-MEL-5 melanoma): 20.5 µM
- GI50 (MDA-MB-435): 1890 nM
- TGI (MDA-MB-435): 4.4 µM
- GI50 (UO-31 renal): 13.9 µM
- TGI (UO-31 renal): 50.5 µM
- GI50 (NCI-H226 lung): 15.2 µM
- TGI (NCI-H226 lung): 80.7 µM
- GI50 (UACC-62 melanoma): 4.59 µM
- TGI (UACC-62 melanoma): 23.2 µM
- GI50 (EKVX NSCLC): 4.02 µM
- TGI (EKVX NSCLC): 35.3 µM
- GI50 (IGROV1 ovarian): 44.5 µM
- TGI (IGROV1 ovarian): > 100 µM
- GI50 (SK-MEL-2 melanoma): 36.2 µM
- TGI (SK-MEL-2 melanoma): > 100 µM
- GI50 (K-562 leukemia): 17.6 µM
- TGI (K-562 leukemia): > 100 µM
- GI50 (BT-549 breast): 5.58 µM
- TGI (BT-549 breast): 83.6 µM
- GI50 (SN12C renal): 10.2 µM
- TGI (SN12C renal): 51.5 µM
- GI50 (786-0 renal): 30.8 µM
- TGI (786-0 renal): > 100 µM
- GI50 (T-47D breast): 22 µM
- TGI (T-47D breast): > 100 µM
- GI50 (HOP-92 NSCLC): 2690 nM
- TGI (HOP-92 NSCLC): 31 µM
- GI50 (RPMI-8226 leukemia): 6.17 µM
- TGI (RPMI-8226 leukemia): 38.2 µM
- GI50 (NCI-H23 lung): 24.2 µM
- TGI (NCI-H23 lung): 72.7 µM
- GI50 (U251 CNS): 37.9 µM
- TGI (U251 CNS): > 100 µM
- GI50 (HCC-2998 colon): 17.6 µM
- TGI (HCC-2998 colon): 34.1 µM
- GI50 (MDA-MB-231 breast): 14.7 µM
- TGI (MDA-MB-231 breast): 60.2 µM
- GI50 (OVCAR-8 ovarian): 18.4 µM
- TGI (OVCAR-8 ovarian): > 100 µM
- GI50 (SNB-75 CNS): 10.7 µM
- TGI (SNB-75 CNS): > 100 µM
- GI50 (A549 NSCLC): 12.9 µM
- TGI (A549 NSCLC): 77.9 µM
- GI50 (OVCAR-3 ovarian): 2550 nM
- TGI (OVCAR-3 ovarian): > 100 µM
